These results are taken from PMC9408991, “Antitumor Effects of a New Retinoate of the Fungal Cytotoxin Illudin M in Brain Tumor Models” (International Journal of Molecular Sciences, 2022).

Read-outs that look alike come from different tables or passages of the source.

For assay [1], the system named is MZ-54 glioblastoma cells. Nature of the assay: Annexin V/PI flow cytometry. The class given is cell-based, human. The conditions noted are these: MZ-54 cells. The method, then:
U251 und Mz54 glioblastoma cells (6 × 10^5 cells/mL, 0.5 mL/well) were seeded in 24-well plates. The next day, the cells were treated with 1, 2 or vehicle (DMSO) for 48 h. Prior to the measurement, the cells were harvested and stained using Annexin-V-APC (BD Biosciences, Heidelberg, Germany) and propidium iodide (PI, 0.05 mg/mL, Sigma-Aldrich, Taufkirchen, Germany). Cells were analyzed with BD Accuri C6 flow-cytometer (BD Biosciences), and data processing was performed using BD Accuri C6 software (BD Biosciences).
Figure 7 (A–D). Annexin V/PI flow cytometry of MZ–54 cells upon treatment with 1 or 2, mean + SEM; Brown–Forsythe ANOVA test with Dunnett’s T3 multiple comparison test (compared with DMSO control); * < 0.05; ** < 0.01; *** < 0.001; **** < 0.0001.
For orientation: Flow cytometry measures light scatter and fluorescence of single cells or particles in a stream.

For assay [2], the system named is NE-4C neuroectodermal stem cells. The experiment in a line: MTT cell viability assay, NE-4C neuroectodermal stem cells. The note with it: Mus musculus, read-out: Inhibitory concentration IC50. The assay is classed as cell-based. The method, then:
NE-4C cells derived from the anterior brain vesicles of p53-deficient 9-day-old mouse embryos were maintained in Minimum Essential Medium (MEM; Sigma Aldrich, Taufkirchen, Germany) supplemented with 5% fetal calf serum (FCS; Invitrogen-Gibco, Carlsbad, CA, USA), 4 mM glutamine (Sigma-Aldrich, Taufkirchen, Germany) and 40 ug/mL gentamycin (Chinoin, Budapest, Hungary). For maintenance, subconfluent cultures were regularly split by trypsinization (0.05 w/v% trypsin in PBS) into poly-L-lysine-coated Petri dishes. Primary astrocytes were isolated from whole brains of neonatal (P0-P3) mice, as described earlier. In brief, meninges were removed, and the tissue pieces were subjected to enzymatic dissociation, using 0.05% w/v trypsin and 0.05% w/v DNase for 10 min at room temperature. The cells were plated onto poly-L-lysine coated plastic surfaces and grown in MEM supplemented with 10% fetal calf serum, 4 mM glutamine and 40 ug/mL gentamycin. Primary neuronal cultures were prepared from embryonic (E15–E16) mouse (CD1) forebrains, as described earlier. In brief, cell suspensions were prepared by mechanical dissociation over a nylon mesh with a pore diameter of 40–42 μm. The cells were seeded at 10^5 cells/cm^2 density onto PLL-coated surfaces. The cultures were maintained in MEM supplemented with 5% FCS, 4 mM glutamine, 40 µg/mL gentamicin and 2.5 μg/mL amphotericin B (Sigma). In co-culture experiments, U87 glioma cells were seeded onto established neuronal cultures at DIV3 in a 25,000 cell/cm^2 density.
(§1) Non-GBM cells (5 × 10^4 cells/mL, 100 µL/well) were grown in 96-well plates for 24 h. […] After the addition of 12.5 µL of a 0.5% MTT solution in PBS, the cells were incubated for 3 h at 37 °C so that the water-soluble MTT could be converted to formazan crystals. Then, the plates were centrifuged (300× g, 5 min, 4 °C), the medium withdrawn, and the formazan dissolved in 25 µL of DMSO containing 10% sodium dodecylsulfate (SDS) and 0.6% acetic acid for at least 2 h at 37 °C. In the case of the HL60 cells, after 2 h, the precipitate of formazan crystals was redissolved in a 10% solution of SDS in DMSO containing 0.6% acetic acid.
(In general: Formazan colour is commonly taken as a measure of viable cells.)

Assay [3] relates to C6 astrocytoma cells. The experiment in a line: MTT cell viability assay, C6 astrocytoma. The assay is classed as cell-based. The note with it: Rattus norvegicus, read-out: Inhibitory concentration IC50. The method, then: (§2) 518A2 (Department of Radiotherapy, Medical University of Vienna, Vienna, Austria) melanoma, KB-V1^Vbl (ACC-149) cervix carcinoma, MCF-7^Topo (ACC-115) breast carcinoma, HT29 (ACC-299) colon carcinoma were cultivated in Dulbecco’s Modified Eagle Medium (DMEM) supplemented with 10% fetal bovine serum and 1% antibiotic-antimycotic at 37 °C, 5% CO2, and 95% humidity. To keep MCF-7^Topo and KB-V1^Vbl cells resistant, the maximum-tolerated doses of topotecan or vinblastine were added to the cell culture medium 24 h after every passage. The human HL60 leukemia cells were obtained from the German National Resource Center for Biological Material (DSMZ), Braunschweig. Neuroectodermal stem cells NE-4C (ATCC No. CRL-2925), primary mouse astrocytes, rat glioma C6 (ATCC No. CCL-107) and human glioma U87 (ATCC No. HTB-14) were used.
Non-GBM cells (5 × 10^4 cells/mL, 100 µL/well) were grown in 96-well plates for 24 h. Then, they were treated with various concentrations of the test compounds or vehicle (DMSO, or EtOH) for 72 h at 37 °C. After the addition of 12.5 µL of a 0.5% MTT solution in PBS, the cells were incubated for 3 h at 37 °C so that the water-soluble MTT could be converted to formazan crystals. Then, the plates were centrifuged (300× g, 5 min, 4 °C), the medium withdrawn, and the formazan dissolved in 25 µL of DMSO containing 10% sodium dodecylsulfate (SDS) and 0.6% acetic acid for at least 2 h at 37 °C. In the case of the HL60 cells, after 2 h, the precipitate of formazan crystals was redissolved in a 10% solution of SDS in DMSO containing 0.6% acetic acid.
[…] Afterward, 10 µL of a 5 mg/mL MTT solution in PBS was added to the cells for 3 h at 37 °C. Then, the spheres were centrifuged shortly to collect the cells on the bottom of the plate, and the medium was removed by careful pipetting for both adherently grown and floating sphere GBM cultures. Afterward, formazan was dissolved in a mixture (24:1 v:v) of isopropanol and 1 M HCl using 100 µL for adherent cells by shaking the plates for at least 20 min. The absorbance of formazan (λ = 570 nm), and background (λ = 630 nm) was measured with a microplate reader (Tecan Spark, Tecan Deutschland GmbH, Crailsheim, Germany).

Assay [4] deals with HL60 leukemia cells. Nature of the assay: MTT cell viability assay, HL60 leukemia. The class given is cell-based. The note with it: Homo sapiens, read-out: Inhibitory concentration IC50. The method, then: as §2, §1

`CC1=C2C(=CC(C)(C)[C@@H]2O)C(=O)[C@](C)(O)C12CC2` [Compound 1, illudin M]: the “cell death (Annexin V/PI)” value in assay [1] is “dose- and time-dependent increase in cell death”. The IC50 in assay [2] (24 h exposure) turned out to be 400 ± 100 nM; in assay [2] (48 h exposure), 50 ± 20 nM; in assay [3] (C6, 24 h exposure), 1000 ± 300 nM; in assay [3] (C6, 48 h exposure), 400 ± 60 nM; in assay [4] (HL-60, HL60, 24 h exposure), 7 ± 2 nM; in assay [4] (HL-60, HL60, 48 h exposure) it was 1 nM.

For the compound `CC1=C(/C=C/C(C)=C/C=C/C(C)=C/C(=O)O[C@@H]2C3=C(C)C4(CC4)[C@@](C)(O)C(=O)C3=CC2(C)C)C(C)(C)CCC1` [Compound 2, illudin M retinoate], the “cell death (Annexin V/PI)” value in assay [1] is “dose- and time-dependent increase in cell death”. Also, the IC50 turned out to be 7000 ± 3200 nM in assay [2] (24 h exposure); 2000 ± 1200 nM in assay [2] (48 h exposure); 40000 ± 4000 nM in assay [3] (C6, 24 h exposure); 12000 ± 1300 nM in assay [3] (C6, 48 h exposure); 6800 ± 2800 nM in assay [4] (HL-60, HL60, 24 h exposure); 4500 ± 1100 nM in assay [4] (HL-60, HL60, 48 h exposure).
